These are literature values, as cited in article PMC2714898 (European Journal of Clinical Pharmacology, 2009).

For the compound `C[C@H]1[C@@H](O)O[C@@H]2O[C@@]3(C)CC[C@H]4[C@H](C)CC[C@@H]1[C@@]24OO3` [Dihydroartemisinin (DHA), dihydroartemisinin], the “elimination half-life (t½)” value (averages, after oral AS) was 0.65 to 2.59 h.

As to `CCNCc1cc(Nc2ccnc3cc(Cl)ccc23)ccc1O` [Desethylamodiaquine (DEAQ), N-desethylamodiaquine], the half-life is 60 to 437 h.
